From patent US9708259B2 (Hoffmann-La Roche Inc., priority 2013, dated 2017)
Substitutions are numbered along the chain they refer to. Read-outs that look alike come from different tables or passages of the source.

Tests used:
ratM1 = molecular target: T1, ratM1 (Rattus norvegicus, UniProt P08482); experiment: M1 PAM assay (FLIPR intracellular calcium), rat M1; type: cell-based
T1 construct: expressed in transfected cells; host or cells: CHO cells (stated generally for the assay, not specifically for rat M1)
T1 sequence (P08482 1-460): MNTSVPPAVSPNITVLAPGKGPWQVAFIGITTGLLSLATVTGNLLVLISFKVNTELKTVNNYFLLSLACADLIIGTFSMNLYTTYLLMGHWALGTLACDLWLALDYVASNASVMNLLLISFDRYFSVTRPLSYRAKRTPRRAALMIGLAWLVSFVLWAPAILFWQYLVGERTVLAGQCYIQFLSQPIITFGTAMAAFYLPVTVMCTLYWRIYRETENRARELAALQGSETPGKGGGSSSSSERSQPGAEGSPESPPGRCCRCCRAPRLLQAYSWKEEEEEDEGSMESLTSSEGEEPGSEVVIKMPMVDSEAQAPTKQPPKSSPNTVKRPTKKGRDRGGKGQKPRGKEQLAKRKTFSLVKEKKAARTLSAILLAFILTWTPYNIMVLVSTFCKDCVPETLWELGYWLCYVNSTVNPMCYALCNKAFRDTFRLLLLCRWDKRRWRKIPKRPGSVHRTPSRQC

human M1 = molecular target: T2, human M1 (Homo sapiens, UniProt P11229); experiment: M1 PAM assay (FLIPR intracellular calcium), human M1; type: cell-based
T2 construct: expressed in transfected cells; host or cells: CHO cells
T2 sequence (P11229 1-460): T1 sequence (P08482 1-460) with V5A, S254T, S309P, K320R, G337A, V413I
Procedure: The assay study the effect of several concentrations of test compounds on basal or acetylcholine-stimulated Ca^2+ levels using FLIPR.
CHO human M1 are plated the day before the experiments at 2×10^5 cells/ml in PDL BioCoat 96 well black/clear plate (Becton 35 4640). The cells are grown at 37° C. and 5% CO2 in the following medium: F12 Nut Mix (Gibco 21765), 10% FCS heat inactivated (GIBCO 16000-044), 1% Pen Strep (Gibco,15140) and 200 μg/ml Geneticin (Gibco 11811). On the day of the experiment, the medium was removed and replaced by […] of dye loading buffer containing Hanks Balanced Salt solution (HBSS, 14065-049, Gibco) with 20 mM HEPES (Gibco 15630-056), 2 mM Probenicid (Sigma P8761), […] ester (Molecular Probes F-14202), 10% Pluronic acid Molecular Probes P-3000) pH=7.4 and incubated at 37° C. After 60 minutes extracellular dye was removed and the cells were washed five times with FLIPR buffer containing HBSS (Gibco 14065-049) with 20 mM HEPES (Gibco, 15630-056), 2 mM Probenicid (Sigma P8761) pre-warmed at 37° C. using and Ebml cell washer leaving […] of FLIPR buffer in each well. The cell plate and the diluted compounds (1% DMSO final concentration) are placed on the platform of the FLIPR and the door closed. A signal test to check background fluorescence and basal fluorescence signal is performed. Laser intensity is adjusted if necessary. Two minutes preincubation with the diluted test compounds is provide to determine any agonist activity on the M1 receptor by comparison to 30 nM Acetylcholine control. In order to determine any modulator activity the diluted compounds were added to cells and after two minutes preincubation, the EC20 of acetylcholine is added followed by another two minutes preincubation before the measurement of intracellular Ca^2+ with a FLIPR (Molecular Devices).

[1] = rat M1, FLIPR Ca2+, second value of the cell, read-out: ratM1 EC50
[2] = CHO human M1 cells, FLIPR Ca2+, with EC20 of acetylcholine, first value of the cell, read-out: hM1 EC50

Cn1ncc2cc(Cn3cc(C(=O)N[C@H]4CCCC[C@@H]4O)c4c(F)cccc43)ccc21 [Example 37, 4-fluoro-N-((1S,2S)-2-hydroxycyclohexyl)-1-((1-methyl-1H-indazol-5-yl)methyl)-1H-indole-3-carboxamide]
EC50 (ratM1): 39.5 nM | EC50 (human M1): 43.8 nM

Cn1cc(-c2ccc(Cn3cc(C(=O)NCC4COC4)c4c(F)cccc43)cc2)cn1 [Example 13, 4-fluoro-1-(4-(1-methyl-1H-pyrazol-4-yl)benzyl)-N-(oxetan-3-ylmethyl)-1H-indole-3-carboxamide]
EC50 (ratM1; [1]): 250 nM | EC50 (human M1; [2]): 192 nM

CNC(=O)c1ccc(Cn2cc(C(=O)NC3CCOC(C)C3)c3c(F)cccc32)cc1 (centres unmarked) [Example 127, 4-fluoro-1-[[4-(methylcarbamoyl)phenyl]methyl]-N-(2-methyloxan-4-yl)indole-3-carboxamide]
EC50 (ratM1; [1]): 26 nM | EC50 (human M1; [2]): 19 nM

NC(=O)c1ccc(Cn2cc(C(=O)N[C@H]3CCCC[C@@H]3O)c3c(F)cccc32)cc1 [Example 77, 1-(4-carbamoylbenzyl)-4-fluoro-N-((1S,2S)-2-hydroxycyclohexyl)-1H-indole-3-carboxamide]
EC50 (ratM1; [1]): 2.47 nM | EC50 (human M1; [2]): 2.21 nM

COc1ccc(F)c2c(C(=O)N[C@H]3CCOC[C@@H]3O)cn(Cc3ccc(-c4cnn(C)c4)cc3)c12 [Example 150, 4-fluoro-N-((3R,4S)-3-hydroxytetrahydro-2H-pyran-4-yl)-7-methoxy-1-(4-(1-methyl-1H-pyrazol-4-yl)benzyl)-1H-indole-3-carboxamide]
EC50 (ratM1; [1]): 34 nM | EC50 (human M1; [2]): 50 nM

Cn1ncc2cc(Cn3cc(C(=O)N[C@H]4CCOC[C@@H]4O)c4c(F)cccc43)ccc21 (single isomer, unassigned) [Example 52, 4-fluoro-N-((3R,4S) or (3S,4R)-3-hydroxytetrahydro-2H-pyran-4-yl)-1-((1-methyl-1H-indazol-5-yl)methyl)-1H-indole-3-carboxamide]
EC50 (ratM1): 27 nM | EC50 (human M1): 17.9 nM

Cn1cc(-c2ccc(Cn3cc(C(=O)NC4CCOCC4)c4c(F)cccc43)c(F)c2)cn1 [Example 21, 4-fluoro-1-(2-fluoro-4-(1-methyl-1H-pyrazol-4-yl)benzyl)-N-(tetrahydro-2H-pyran-4-yl)-1H-indole-3-carboxamide]
EC50 (ratM1; [1]): 175 nM | EC50 (human M1; [2]): 60.5 nM

CNC(=O)c1ccc(Cn2cc(C(=O)NC3CCOCC3)c3c(F)cccc32)cc1 [Example 132, 4-fluoro-1-(4-(methylcarbamoyl)benzyl)-N-(tetrahydro-2H-pyran-4-yl)-1H-indole-3-carboxamide]
EC50 (ratM1; [1]): 22 nM | EC50 (human M1; [2]): 3 nM

CNC(=O)c1ccc(Cn2cc(C(=O)NC3CCCCC3(F)F)c3c(F)cccc32)cc1 (centres unmarked) [Example 120, N-(2,2-difluorocyclohexyl)-4-fluoro-1-[[4-(methylcarbamoyl)phenyl]methyl]indole-3-carboxamide]
EC50 (ratM1; [1]): 32 nM | EC50 (human M1; [2]): 15 nM

Cc1cn(-c2ccc(Cn3cc(C(=O)N[C@H]4CCOC[C@@H]4O)c4c(F)cccc43)cc2)cn1 (single isomer, unassigned) [Example 51, 4-fluoro-N-((3R,4S) or (3S,4R)-3-hydroxytetrahydro-2H-pyran-4-yl)-1-(4-(4-methyl-1H-imidazol-1-yl)benzyl)-1H-indole-3-carboxamide]
EC50 (ratM1; [1]): 11.2 nM | EC50 (human M1; [2]): 12.3 nM

Cn1cc(-c2ccc(Cn3cc(C(=O)N[C@@H]4CCOC[C@H]4O)c4c(F)cccc43)c(F)c2)cn1 (single isomer, unassigned) [Example 70, 4-Fluoro-1-(2-fluoro-4-(1-methyl-1H-pyrazol-4-yl)benzyl)-N-((3S,4R) or (3R,4S)-3-hydroxytetrahydro-2H-pyran-4-yl)-1H-indole-3-carboxamide]
EC50 (ratM1; [1]): 284 nM | EC50 (human M1; [2]): 102 nM

O=C(N[C@H]1CCCC[C@@H]1O)c1cn(CC2CCN(c3ccncn3)CC2)c2cccc(F)c12 [Example 143, 4-fluoro-N-((1S,2S)-2-hydroxycyclohexyl)-1-((1-(pyrimidin-4-yl)piperidin-4-yl)methyl)-1H-indole-3-carboxamide]
EC50 (ratM1; [1]): 1070 nM | EC50 (human M1; [2]): 409 nM

O=C(NC1CC1)c1ccc(Cn2cc(C(=O)N[C@H]3CCCC[C@@H]3O)c3c(F)cccc32)cc1 [Example 146, 1-(4-(cyclopropylcarbamoyl)benzyl)-4-fluoro-N-((1S,2S)-2-hydroxycyclohexyl)-1H-indole-3-carboxamide]
EC50 (ratM1; [1]): 5 nM | EC50 (human M1; [2]): 2 nM

O=C(N[C@H]1CCCC[C@@H]1O)c1cn(Cc2ccc(F)c(F)c2)c2cccc(F)c12 [Example 41, 1-(3,4-difluorobenzyl)-4-fluoro-N-((1S,2S)-2-hydroxycyclohexyl)-1H-indole-3-carboxamide]
EC50 (ratM1): 456 nM | EC50 (human M1): 219 nM

N#Cc1ccc(Cn2cc(C(=O)N[C@H]3CCOC[C@@H]3O)c3c(F)cccc32)cc1 (single isomer, unassigned) [Example 54, 1-(4-cyanobenzyl)-4-fluoro-N-((3R,4S) or (3S,4R)-3-hydroxytetrahydro-2H-pyran-4-yl)-1H-indole-3-carboxamide]
EC50 (ratM1): 122 nM | EC50 (human M1): 69.6 nM

Cc1ccn(-c2ccc(Cn3cc(C(=O)N[C@H]4CCCC[C@@H]4O)c4c(F)cccc43)cc2)n1 [Example 50, 4-fluoro-N-((1S,2S)-2-hydroxycyclohexyl)-1-(4-(3-methyl-1H-pyrazol-1-yl)benzyl)-1H-indole-3-carboxamide]
EC50 (ratM1; [1]): 13.9 nM | EC50 (human M1; [2]): 18.3 nM

COc1ccc(F)c2c(C(=O)N[C@H]3CCOC[C@@H]3O)cn(Cc3ccc(-c4cnn(C)c4)cc3F)c12 [Example 153, 4-fluoro-1-(2-fluoro-4-(1-methyl-1H-pyrazol-4-yl)benzyl)-N-((3R,4S)-3-hydroxytetrahydro-2H-pyran-4-yl)-7-methoxy-1H-indole-3-carboxamide]
EC50 (ratM1; [1]): 56 nM | EC50 (human M1; [2]): 56 nM

Cn1cc(-c2ccc(Cn3cc(C(=O)NC4CCCOC4)c4c(F)cccc43)cc2)cn1 (centres unmarked) [Example 12, 4-fluoro-1-(4-(1-methyl-1H-pyrazol-4-yl)benzyl)-N-(tetrahydro-2H-pyran-3-yl)-1H-indole-3-carboxamide]
EC50 (ratM1; [1]): 398 nM | EC50 (human M1; [2]): 129 nM

Cn1cc(-c2ccc(Cn3nc(C(=O)N[C@H]4CCOC[C@@H]4O)c4c(F)cccc43)c(F)c2)cn1 (racemic) [Example 7, 4-fluoro-1-(2-fluoro-4-(1-methyl-1H-pyrazol-4-yl)benzyl)-N-((3RS,4SR)-3-hydroxytetrahydro-2H-pyran-4-yl)-1H-indazole-3-carboxamide]
EC50 (ratM1; [1]): 147 nM | EC50 (human M1; [2]): 70 nM

CNC(=O)c1ccc(Cn2cc(CC(=O)N[C@H]3CCCC[C@@H]3O)c3c(F)cccc32)cc1 [Example 99]
EC50 (ratM1; [1]): 195 nM | EC50 (human M1; [2]): 54 nM

CNC(=O)c1ccc(Cn2cc(C(=O)NC3CCCC(F)(F)C3)c3c(F)cccc32)cc1 (centres unmarked) [Example 118, N-(3,3-difluorocyclohexyl)-4-fluoro-1-[[4-(methylcarbamoyl)phenyl]methyl]indole-3-carboxamide]
EC50 (ratM1; [1]): 29 nM | EC50 (human M1; [2]): 9 nM

CNC(=O)c1ccc(Cn2cc(C(=O)N[C@H]3CCCC[C@@H]3O)c3c(F)cccc32)cc1F [Example 88, 4-fluoro-1-(3-fluoro-4-(methylcarbamoyl)benzyl)-N-((1S,2S)-2-hydroxycyclohexyl)-1H-indole-3-carboxamide]
EC50 (ratM1; [1]): 15.8 nM | EC50 (human M1; [2]): 14.3 nM
